According to article PMC6832836 (Toxins, 2019):

Assays:
[1] = system: MlrA point mutants H260A and E265A; conditions: cited from earlier work
[2] = system: cell-free extract (CE) of Sphingopyxis sp. USTB-05; conditions: cited from earlier work
[3] = system: USTB-05-A mutants; conditions: cited from earlier work
[4] = system: USTB-05-C; conditions: CE protein 165 mg L^−1 added at 12 h; followed from 13 h until 24 h; PBS; 30 °C, 200 rpm; HPLC-UV 238 nm
[5] = system: CE of recombinant pET30a(+)/BL21(DE3); format: in vitro ADME, E. coli; conditions: CE of pET30a(+)/BL21(DE3) added at 12 h; PBS; 30 °C; HPLC-UV 238 nm; Figure S1
Method: The experiments were carried out with five treatments as following: • Control groups for treatment A and treatment C: the CEs of recombinant bacteria pGEX-4T-1/BL21(DE3) without protein USTB-05-A and recombinant bacteria pET30a(+)/BL21(DE3) without protein USTB-05-C were added into two tubes with PBS containing NOD, respectively. • Treatment A: the CE of recombinant bacteria pGEX-4T-1/USTB-05-A/BL21(DE3) containing crude protein USTB-05-A was added into PBS containing NOD. • Treatment C: the CE of recombinant bacteria pET30a(+)/USTB-05-C/BL21(DE3) containing crude protein USTB-05-C was added into PBS containing NOD. • Treatment AC: at 0 h, the CE containing crude protein USTB-05-A was added into PBS containing NOD. At 12 h, the CE containing crude protein USTB-05-C was added to the above solution. • Control group for treatment A and treatment C: at 0 h, the CE containing crude protein USTB-05-A was added into the test tubes with PBS containing NOD. At 12 h, the CE of pET30a(+)/BL21(DE3) without protein USTB-05-C was added to the above solution. […]
The concentration of NOD was detected by high performance liquid chromatography (HPLC) (LC10ATVP, Shimadzu Co., Ltd., Tokyo, Japan) with a UV diode array detector at 238 nm. […] The spectra of NOD and its biodegradation products were detected at the time of HPLC analysis.

[6] = system: USTB-05-A; conditions: initial NOD 13.7 mg L^−1; CE protein 158 mg L^−1; PBS; 30 °C, 200 rpm; 12 h to 24 h; HPLC-UV 238 nm

MC-LR
MC-LR biodegradation by MlrA point mutants H260A and E265A [1]: no activity
time to complete biodegradation by CE [2]: ≤ 3 h
MC-LR biodegradation by N264A mutant [3]: significant decrease in MlrA activity
MC-LR biodegradation by W176A and W201A mutants [3]: decrease in the reaction rate to some extent
MC-LR biodegradation by point mutants E172A, H205A and H260A [3]: complete loss of enzymatic activity

C/C=C(/C(=O)N[C@@H](C(=O)O)[C@H](C)C(=O)N[C@@H](CCCNC(=N)N)C(=O)O)N(C)C(=O)CC[C@@H](NC(=O)[C@@H](C)[C@@H](N)/C=C/C(C)=C/[C@H](C)[C@H](Cc1ccccc1)OC)C(=O)O [product A]
change of product A peak after addition of CE containing USTB-05-C (treatment AC) [4]: decreased and disappeared
concentration of product A with control CE without USTB-05-C (control group of treatment AC) [5]: constant
peaks after the first 12 h until 24 h with CE containing USTB-05-A only (treatment A) [6]: remained constant

MC-YR
time to complete elimination by CE [2]: ≤ 10 h
